Entries after “also recorded” stand apart in the source; their conditions may differ. Counter-ions that a name gives are not always drawn. Marks after values point to notes of the source that are not given here. Each block holds one compound with its values, some of them ahead of it.
Tests used:
[1] = tested on: carrageenan induced rat paw edema; assay: Carrageenan induced rat paw edema; assay type: in vivo, albino rats; conditions: for Paw circumference: Example 8 (in vivo), 100 mg/kg oral with food; for Percent inhibition of paw edema (Std. Error): Example 9, 100 mg/kg oral with food
Experimental: Animals were kept under 13 hour day night cycle. Animals were given standard diet and water was provided ad, libitum. All animals were acclimatized for at least one week before the experimental session. Animals were divided in to five groups. Each group consisted of 8 animals.
Pedal inflammation in albino rats of either sex was produced according to the method of Winter et al., (Proc Soc Exp Biol Med 1963; 111: 544-7). An injection was made with 0.1 ml of 1% carrageenan (SIGMA) suspension into the right hind foot of each rat in the plantar region. […] Control group 5 was given 0.5 ml saline and groups 1 and 2 received aspirin. Increase in linear paw circumference was measured by tying a piece of cotton thread round the rat's paw, and noting the point of intersection of two ends on a meter scale. This was taken as an index of increase in paw volume, which is a measure of oedema (Bamgbose S O A, Noamesi B K. Planta Med 1981; 42: 392-6). Measurements were taken immediately before and at 1, 2 and 3 hours after carrageenan injection. The inhibitory activity was calculated according to the following formula (Awe S O, Olajide O A, Adeboye J O, Makinde J M. Indian J Pharmacol 1998; 30: 38-42):
[formula] Ct-Linear paw circumference 3 hours after carrageenan injection and Co-Linear paw circumference before carrageenan injection.
Albino rats obtained from central animal house of institute were used in the study. The animals were kept under 12 hour day night cycle. Animals were given standard diet and water was provided ad libitum. All animals were acclimatized for at least one week before the experimental session. Animals were divided into twelve groups in the carrageenan induced paw edema and tail flick method. Each group consisted of 4 animal each.
Animals were divided into eight groups in the carrageenan induced paw edema and tail flick method. Each group consisted of 6 animal each. The groups received various chemicals as given in Table 16 by oral administration with food. The following methods were used to evaluate the activity of the compositions:
Pedal inflammation in albino rats of either sex was produced according to the method of Winter et al. (Proc. Soc. Exp. Biol. Med., 1963, 111: 544-547). An injection was made with 0.1 ml of 1% carrageenan (SIGMA) suspension into the right hind foot of each rat in the plantar region. The various chemicals were given 30 minutes before carrageenan injection. Increase in linear paw circumference was measured by tying a piece of cotton thread round the rat's paw, and noting the point of intersection of two ends on a meter scale. This was taken as an index of increase in paw volume, which is a measure of edema (Bamgbose, S. O. A. & Noamesi, B. K., Planta. Med., 1981, 42: 392-396). Measurements were taken immediately before and at 1, 2 and 3 hours after carrageenan injection. The inhibitory activity was calculated according to the following formula (Awe S O, Olajide O A, Adeboye J O, Makinde J M. Indian J. Pharmacol., 1998; 30: 38-42):
Animals were divided into six groups in the carrageenan induced paw edema and tail flick method. Each group consisted of 8 animals each. Carrageenan-induced rat paw edema and Tail flick test were performed as discussed above in Example 8. Data were analyzed using analysis of variance (ANOVA) with Posthoc Bonferroni multi-comparisons. P<0.05 was considered as statistically significant.

[2] = tested on: tail flick latency in rats; assay: Tail flick test (analgesic activity); assay type: in vivo, albino rats
Experimental: Rats were screened for tail flip reaction with a cut-off time of 5 seconds. For each animal, the tail flick latency was obtained thrice before drug administration and mean was used as pre-drug latency. The tail flick latencies were measured at 0, 0.5, 1, 1.5, 2 and 3 h after administration chemicals.
Albino rats obtained from central animal house of institute were used in the study. The animals were kept under 12 hour day night cycle. Animals were given standard diet and water was provided ad libitum. All animals were acclimatized for at least one week before the experimental session. […] Each group consisted of 4 animal each.
Rats were screened for tail flip reaction with a cut-off time of 5 seconds. For each animal, the tail flick latency was obtained thrice before drug administration and mean was used as pre-drug latency. The tail flick latencies were measured at 0, 0.5, 1, 1.5, 2 and 3 h after administration of chemicals.
Each group consisted of 8 animals each. […] Data were analyzed using analysis of variance (ANOVA) with Posthoc Bonferroni multi-comparisons. P<0.05 was considered as statistically significant.

[3] = tested on: breast (SKBR3) cancer cell line; assay: Cellular inhibition, Alamar Blue; assay type: cell-based; conditions: for inhibition of proliferation: skbr3, 48 hours
Experimental: (§1) Assays were performed with 3 cancer cell lines: breast (SKBR3), pancreatic (Panc1), prostate (PC-3) and 1 normal (nor-cancer) cell line (WI-38). Compounds were delivered to the cells after dissolving in DMSO. Five dilutions per compound were tested on a total of 4 cell lines in 96 well plates. Cellular inhibition was measured using Alamar Blue. After addition of compound a 24 hour and 48 hour time point using fluorescent plate reader was taken. Data from plate reader was analyzed in the following way: % inhibition bar graphs, % inhibition line graphs and IC50 growth inhibition values. In Tables 7-14, IC50 units are Molar (M).

[4] = tested on: normal (non-cancer) cell line WI-38; assay: Cellular inhibition, Alamar Blue; assay type: cell-based
Experimental: as §1

[5] = tested on: pancreatic (Panc1) cancer cell line; assay: Cellular inhibition, Alamar Blue; assay type: cell-based; conditions: for inhibition of proliferation: Panc-1, 48 hours
Experimental: as §1

[6] = tested on: prostate (PC-3) cancer cell line; assay: Cellular inhibition, Alamar Blue; assay type: cell-based; conditions: for inhibition of proliferation: PC-3, 48 hours
Experimental: as §1

PANC-1 cells = assay: GI50 (50% inhibition of cell growth), MTT assay, 72 hours; assay type: cell-based; conditions: Homo sapiens, PANC-1, 72 h, 1 ng/ml to 10 ug/ml (Example 8)
Experimental: (§2) The cells were plated onto a 96 well plate and treated with different concentrations of the compounds from 1 ng/ml to 10 ug/ml for 72 hours followed by MTT assay.
(§3) The cells were plated onto a 96 well plate and treated with different concentrations of the compounds from 0.04 ng/ml to 400 ng/ml for 72 hours followed by MTT assay.

PC3 cells = assay: as above; assay type: cell-based; conditions: Homo sapiens, PC-3, 72 h, PC3, 72 hours, 1 ng/ml to 10 ug/ml (Example 8)
Experimental: as §2, §3

[7] = In vitro enzyme hydrolysis in human serum (HPLC); assay type: in vitro ADME; conditions: 25% human serum; for Test compound Rate: rate of decomposition of test compound; for Salicyclic acid Rate: rate of release of salicylic acid; for Test compound Concentration: remaining test compound; for Salicyclic acid Concentration: salicylic acid released from test compound, 0.2 mg/mL
Experimental: A 25% solution of human serum in 0.01M phosphate buffer was taken and the test compound (glucose aspirin or aspirin) were added to get a concentration of 0.2 mg/mL. The hydrolysis for the rate of release of salicylic acid and the rate of decomposition of the test compound were measured by HPLC.

[8] = tested on: cancer cell lines SKBR3, Panc1, PC-3; assay: Cellular inhibition, Alamar Blue, cancer cell lines taken together; assay type: cell-based; conditions: 24 hours
Experimental: as §1

[9] = Example 5, 100 and 200 mg/kg i.p., rats
[10] = Example 9, 100 mg/kg oral with food, 30 min
[11] = Example 9, 100 mg/kg oral with food, 60 min
[12] = Example 9, 100 mg/kg oral with food, 90 min
[13] = Example 9, 100 mg/kg oral with food, 120 min
[14] = Example 9, 100 mg/kg oral with food, 180 min
[15] = Example 9, 100 mg/kg oral with food, column headed min

IC50 ([3]; Homo sapiens, SK-BR-3, SKBR3, 24 hours): 84.1 µM
IC50 ([3]; Homo sapiens, SK-BR-3, SKBR3, 48 hours): 99.4 µM
IC50 ([5]; Homo sapiens, PANC-1, PANC1, 24 hours): 41.5 µM
IC50 ([5]; Homo sapiens, PANC-1, PANC1, 48 hours): 38.2 µM
IC50 ([6]; PC3, 24 hours): 29.5 µM
IC50 ([6]; PC3, 48 hours): 24.2 µM
Compound: COc1cc(/C=C/C(=O)CC(=O)/C=C/c2ccc(O)c(OC)c2)ccc1O [Curcumin]
Paw circumference ([1]; 0 h): 3.2 mm
Paw circumference ([1]; 1 h): 3.68 mm
Paw circumference ([1]; 2 h): 3.45 mm
Paw circumference ([1]; 3 h): 3.53 mm
Tail flick latency time ([2]; Example 8 (in vivo), 100 mg/kg oral with food, 0 min): 2.67 s
Tail flick latency time ([2]; Example 8 (in vivo), 100 mg/kg oral with food, 30 min): 2.58 s
Tail flick latency time ([2]; Example 8 (in vivo), 100 mg/kg oral with food, 60 min): 2.8* seconds
Tail flick latency time ([2]; Example 8 (in vivo), 100 mg/kg oral with food, 90 min): 3.18* seconds
Tail flick latency time ([2]; Example 8 (in vivo), 100 mg/kg oral with food, 120 min): 3.03 s
Tail flick latency time ([2]; Example 8 (in vivo), 100 mg/kg oral with food, 180 min): 2.68 s
Tail flick / analgesic activity (in words) ([2]; Example 8 (in vivo), oral, 100 mg/kg total (combinations 50 mg/kg each)): stronger activity at 60 and 90 minutes
inhibition of normal lung cells (WI-38) ([4]; 24 hours, 100, 150 and 300 uM): over 20%
IC50 ([4]; Homo sapiens, WI-38, WI38, 24 hours): 1000 µM
IC50 ([4]; Homo sapiens, WI-38, WI38, 48 hours): 89.9 µM

GI50 (PANC-1 cells): 7.18 µg/mL
GI50 (PC3 cells): 3.85 µg/mL
Compound: Nc1ccn([C@@H]2O[C@H](CO)[C@@H](O)C2(F)F)c(=O)n1 [NJ-92-1, Gemcitabine.HCl]

Compound: CC(=O)Oc1ccccc1C(=O)O[C@@H]([C@H](O)[C@H](O)CO)[C@@H](O)C=O [PMN II-168, 3-(2′-Acetyloxybenzoyl)-D-glucose]
Hydrolysis rate in human serum (in words) ([7]; compared with aspirin): much slower rate than aspirin
Average rate, test compound ([7]; decomposition of test compound, 0-180 min): -3.3e-07 M/min
Test compound Rate ([7]; 0 min): 0 M/min
Test compound Rate ([7]; 30 min): 1.91e-07 M/min
Test compound Rate ([7]; 60 min): -2.24e-07 M/min
Test compound Rate ([7]; 90 min): -3.62e-07 M/min
Test compound Rate ([7]; 120 min): -2.96e-07 M/min
Test compound Rate ([7]; 180 min): -4.38e-07 M/min
Salicyclic acid Rate ([7]; 0 min): 0 M/min
Salicyclic acid Rate ([7]; 30 min): 0 M/min
Salicyclic acid Rate ([7]; 120 min): 9.11e-07 M/min
Salicyclic acid Rate ([7]; 180 min): 1.97e-07 M/min
Average rate, salicyclic acid ([7]; release of salicylic acid, 0-180 min): 9.08e-08 M/min
Test compound Concentration ([7]; 0 min): 198 µM
Test compound Concentration ([7]; 30 min): 203 µM
Test compound Concentration ([7]; 60 min): 184 µM
Test compound Concentration ([7]; 90 min): 165 µM
Test compound Concentration ([7]; 120 min): 162 µM
Test compound Concentration ([7]; 180 min): 119 µM
Salicyclic acid Concentration ([7]; 0 min): 0 µM
Salicyclic acid Concentration ([7]; 30 min): 0 µM
Salicyclic acid Concentration ([7]; 60 min): 2.7 µM
Salicyclic acid Concentration ([7]; 90 min): 2.75 µM
Salicyclic acid Concentration ([7]; 120 min): 10.9 µM
Salicyclic acid Concentration ([7]; 180 min): 35.4 µM
Suppression of carrageenan-induced paw edema (in words) [1, 9]: significantly suppressed carrageenan-induced paw edema
Tail flick latency / analgesic activity (in words) [2, 9]: significant analgesic activity
IC50 ([3]; SKBR3, 24 hours): 201 µM
IC50 ([3]; SKBR3, 48 hours): 87.8 µM
inhibition of proliferation ([3]; 150 uM): ~60%
inhibition of proliferation ([3]; 300 uM): approximately 90%
IC50 ([4]; WI38, 24 hours): 376 µM
IC50 ([4]; WI38, 48 hours): 310 µM
IC50 ([5]; PANC1, 24 hours): 399 µM
IC50 ([5]; PANC1, 48 hours): 90.5 µM
inhibition of proliferation ([5]; 150 uM): ~60%
inhibition of proliferation ([5]; 300 uM): ~70%
IC50 ([6]; PC3, 24 hours): 83.2 µM
IC50 ([6]; PC3, 48 hours): 81.4 µM
inhibition of proliferation ([6]; 150 uM): ~65%
inhibition of proliferation ([6]; 300 uM): ~85%
inhibition of cancer cell growth ([8]; 300 uM): up to 60%
inhibition of cancer cell growth ([8]; four lower concentrations): 20%

Compound: Curcumin diglutarate [NJ-104-5]
Percent inhibition of paw edema (Std. Error) ([1]; 1 hr): 49.26 (3.94) %
Percent inhibition of paw edema (Std. Error) ([1]; 2 hr): 37.50 (5.11) %
Percent inhibition of paw edema (Std. Error) ([1]; 3 hr): 20.05 (8.34) %
Analgesic activity, tail flick (in words) ([2]; Example 9, 100 mg/kg oral): strong activity at 90 and 180 minutes; also recorded: strong analgesic activity
Tail flick latency time [2, 10]: 3.5625 s
Tail flick latency time [2, 11]: 3.6125 s
Tail flick latency time [2, 12]: 3.7375 s
Tail flick latency time [2, 13]: 3.05 s
Tail flick latency time [2, 14]: 3.5625 s
Tail flick latency time [2, 15]: 3.05 s

Compound: curcumin-glutarate [MT-76-1]
IC50 ([3]; SKBR3, 24 hours): 169 µM
IC50 ([3]; SKBR3, 48 hours): 118 µM
IC50 ([4]; WI38, 24 hours): 298 µM
IC50 ([4]; WI38, 48 hours): 166 µM
IC50 ([5]; PANC1, 24 hours): 35.4 µM
IC50 ([5]; PANC1, 48 hours): 123 µM
IC50 ([6]; PC3, 24 hours): 127 µM
IC50 ([6]; PC3, 48 hours): 71.6 µM

Compound: diacetylcurcumin [NJ-58-1]
Anti-inflammatory activity, paw edema (in words) ([1]; Example 9, 100 mg/kg oral): strong
Percent inhibition of paw edema (Std. Error) ([1]; 1 hr, listed as Curcumin diacetate): 76%
Percent inhibition of paw edema (Std. Error) ([1]; 1 hr, listed as NJ-104-4): 76.49 (8.35) %
Percent inhibition of paw edema (Std. Error) ([1]; 2 hr, listed as Curcumin diacetate): 80%
Percent inhibition of paw edema (Std. Error) ([1]; 2 hr, listed as NJ-104-4): 80.56 (5.84) %
Percent inhibition of paw edema (Std. Error) ([1]; 3 hr, listed as Curcumin diacetate): 76%
Percent inhibition of paw edema (Std. Error) ([1]; 3 hr, listed as NJ-104-4): 76.74 (8.22) %
Tail flick latency time [2, 10]: 3.675 s
Tail flick latency time [2, 11]: 3.6125 s
Tail flick latency time [2, 12]: 3.6375 s
Tail flick latency time [2, 13]: 3.4375 s
Tail flick latency time [2, 14]: 3.675 s
Tail flick latency time [2, 15]: 3.4375 s
IC50 ([3]; SKBR3, 24 hours): 171 µM
IC50 ([3]; SKBR3, 48 hours): 125 µM
inhibition of normal lung cells (WI-38) ([4]; 24 hours): less than 10%
IC50 ([4]; WI38, 24 hours): 4390 µM
IC50 ([4]; WI38, 48 hours): 155 µM
IC50 ([5]; PANC1, 24 hours): 268 µM
IC50 ([5]; PANC1, 48 hours): 133 µM
IC50 ([6]; PC3, 24 hours): 96.1 µM
IC50 ([6]; PC3, 48 hours): 67 µM

Reference: patent US9012411B2, “Formulations from derivatives of curcumin, paclitaxel, and aspirin” (Organomed Corporation, priority 2009, dated 2015)
